From ChEMBL document CHEMBL1201862, “PubChem BioAssay data set” (2004)
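Cells were grown in 96-well plates and exposed to each compound for 48 hours at five concentrations; endpoints were interpolated linearly between bracketing concentrations, or set to the highest concentration if not reached. The concentration for 50% growth inhibition is given as GI50.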 The source made the active and inactive calls. No stated cut-off is given here; in the data, active = GI50 up to about 1.1 µM and inactive = higher.

Legend:
Experiment in all cases: NCI-60 cell line screen, 48 h
IGROV-1 = tested on: IGROV-1
NCI-H522 = tested on: NCI-H522
OVCAR-5 = tested on: OVCAR-5
EKVX = tested on: EKVX
SN12C = tested on: SN12C
NCI-H23 = tested on: NCI-H23
UO-31 = tested on: UO-31
A549 = tested on: A549
HL-60 = tested on: HL-60
NCI-H226 = tested on: NCI-H226
OVCAR-4 = tested on: OVCAR-4
786-0 = tested on: 786-0
RXF 393 = tested on: RXF 393
MOLT-4 = tested on: MOLT-4
HCT-116 = tested on: HCT-116
Malme-3M = tested on: Malme-3M
SK-OV-3 = tested on: SK-OV-3
M14 = tested on: M14
DU-145 = tested on: DU-145

| SMILES | GI50 (IGROV-1) | GI50 (NCI-H522) | GI50 (OVCAR-5) | GI50 (EKVX) | GI50 (SN12C) | GI50 (NCI-H23) | GI50 (UO-31) | GI50 (A549) | GI50 (HL-60) | GI50 (NCI-H226) | GI50 (OVCAR-4) | GI50 (786-0) | GI50 (RXF 393) | GI50 (MOLT-4) | GI50 (HCT-116) | GI50 (Malme-3M) | GI50 (SK-OV-3) | GI50 (M14) | GI50 (DU-145) |
| --- | --- | --- | --- | --- | --- | --- | --- | --- | --- | --- | --- | --- | --- | --- | --- | --- | --- | --- | --- |
| CCOc1ccc2c(c1)[n+]([O-])c(-c1ccccc1Cl)c(N)[n+]2[O-] | > 100 µM (inactive) | 17.4 µM (inactive) | > 100 µM (inactive) | > 100 µM (inactive) | > 100 µM (inactive) | > 100 µM (inactive) | > 100 µM (inactive) | > 100 µM (inactive) | 56.5 µM (inactive) | > 100 µM (inactive) | > 100 µM (inactive) | > 100 µM (inactive) | > 100 µM (inactive) | 74 µM (inactive) | > 100 µM (inactive) | > 100 µM (inactive) | > 100 µM (inactive) | > 100 µM (inactive) |  |
| CCOC(=O)c1ccc2c(c1)nc1n2C(c2c(F)cccc2F)SC1 (stereo unspecified) | 0.951 µM (active) |  | 59.6 µM (inactive) |  | 56.4 µM (inactive) | 17.6 µM (inactive) | 29.2 µM (inactive) | 23.6 µM (inactive) | 24.4 µM (inactive) | 6.9 µM (inactive) | 46.6 µM (inactive) | 23.4 µM (inactive) | 51.6 µM (inactive) | 26.8 µM (inactive) | 15.6 µM (inactive) |  | 94.6 µM (inactive) | 27.9 µM (inactive) | 30.6 µM (inactive) |
| C=C1c2ccccc2N(S(=O)(=O)c2ccc(C)cc2)C12CCCCC2 | > 100 µM (inactive) | 34.8 µM (inactive) | > 100 µM (inactive) | > 100 µM (inactive) | > 100 µM (inactive) | 25.3 µM (inactive) | > 100 µM (inactive) | 63.4 µM (inactive) | 19.8 µM (inactive) | 53.2 µM (inactive) | 53.1 µM (inactive) | > 100 µM (inactive) | 45.6 µM (inactive) | 30.4 µM (inactive) | 33 µM (inactive) | 34.8 µM (inactive) | > 100 µM (inactive) | 94.4 µM (inactive) |  |
| COc1ccc(-[n+]2nc(S(=O)(=O)O)c(/C=C/c3ccc(N(C)C)cc3)cc2C#N)cc1 | > 100 µM (inactive) | > 100 µM (inactive) | > 100 µM (inactive) | > 100 µM (inactive) | > 100 µM (inactive) | > 100 µM (inactive) | > 100 µM (inactive) | > 100 µM (inactive) |  | > 100 µM (inactive) | > 100 µM (inactive) | > 100 µM (inactive) |  | > 100 µM (inactive) | > 100 µM (inactive) |  | > 100 µM (inactive) | > 100 µM (inactive) | > 100 µM (inactive) |
| COc1ccc(-c2cc(C(=O)Nc3cccc(C(F)(F)F)c3)nc(S)n2)cc1 | > 100 µM (inactive) | > 100 µM (inactive) | > 100 µM (inactive) | > 100 µM (inactive) | > 100 µM (inactive) | > 100 µM (inactive) | > 100 µM (inactive) | > 100 µM (inactive) | > 100 µM (inactive) | > 100 µM (inactive) | > 100 µM (inactive) | > 100 µM (inactive) | > 100 µM (inactive) | > 100 µM (inactive) | > 100 µM (inactive) | > 100 µM (inactive) | > 100 µM (inactive) | > 100 µM (inactive) |  |
| COc1cc2c(cc1OS(C)(=O)=O)N=C[C@@H]1CCCN1C2=O | > 100 µM (inactive) | > 100 µM (inactive) |  | > 100 µM (inactive) | > 100 µM (inactive) | > 100 µM (inactive) | > 100 µM (inactive) | > 100 µM (inactive) | > 100 µM (inactive) | > 100 µM (inactive) | > 100 µM (inactive) | > 100 µM (inactive) | > 100 µM (inactive) | > 100 µM (inactive) | > 100 µM (inactive) | > 100 µM (inactive) | > 100 µM (inactive) | > 100 µM (inactive) | > 100 µM (inactive) |
| COc1ccc(C(=O)C(c2ccc(OC)cc2)C2C(=O)Oc3ccccc32)cc1 (stereo unspecified) | > 10 µM (inactive) | > 10 µM (inactive) | > 10 µM (inactive) | > 10 µM (inactive) | > 10 µM (inactive) | > 10 µM (inactive) | 22.5 µM (inactive) | > 10 µM (inactive) | > 10 µM (inactive) | > 10 µM (inactive) | 5.98 µM (inactive) | > 10 µM (inactive) | > 10 µM (inactive) | > 10 µM (inactive) | > 10 µM (inactive) | > 10 µM (inactive) | > 10 µM (inactive) | > 10 µM (inactive) |  |
| COc1cc2cc3c4c(cc(OC)c(OC)c4c2cc1OC)CCN3C(=O)CCC(=O)O | > 100 µM (inactive) | > 100 µM (inactive) | > 100 µM (inactive) | > 100 µM (inactive) | > 100 µM (inactive) | > 100 µM (inactive) | > 100 µM (inactive) | > 100 µM (inactive) | > 100 µM (inactive) | > 100 µM (inactive) | > 100 µM (inactive) | > 100 µM (inactive) | > 100 µM (inactive) | > 100 µM (inactive) | > 100 µM (inactive) | > 100 µM (inactive) | > 100 µM (inactive) | > 100 µM (inactive) |  |
| O=C(O)c1cc2ccc(Cl)cc2c(O)c1C1=CCCCC1 | 50 µM (inactive) | 29 µM (inactive) | 54.1 µM (inactive) | 43.4 µM (inactive) | 46.8 µM (inactive) | 26.4 µM (inactive) | 34.8 µM (inactive) | 39.9 µM (inactive) | 30.8 µM (inactive) | 26.7 µM (inactive) | 23.2 µM (inactive) | 52.8 µM (inactive) | 36.5 µM (inactive) | 36.4 µM (inactive) | 37.1 µM (inactive) | 50.1 µM (inactive) | 42.7 µM (inactive) | 43.7 µM (inactive) |  |
| COc1ccc(-c2nc(-c3cc4c(ccc5ccccc54)oc3=O)cs2)cc1 | > 100 µM (inactive) |  | > 100 µM (inactive) | > 100 µM (inactive) | > 100 µM (inactive) |  | > 100 µM (inactive) | > 100 µM (inactive) | > 100 µM (inactive) | 31 µM (inactive) | 43.7 µM (inactive) | 33.2 µM (inactive) | > 100 µM (inactive) | > 100 µM (inactive) | 59.8 µM (inactive) |  | > 100 µM (inactive) | > 100 µM (inactive) | > 100 µM (inactive) |
| Cc1ccc(-n2c(N)c(C#N)c3[nH]nc(N)c3c2=O)cc1 | > 100 µM (inactive) |  |  | 95.1 µM (inactive) |  | > 100 µM (inactive) | > 100 µM (inactive) |  | > 100 µM (inactive) | 41 µM (inactive) | > 100 µM (inactive) | > 100 µM (inactive) | > 100 µM (inactive) | > 100 µM (inactive) | > 100 µM (inactive) |  | > 100 µM (inactive) | > 100 µM (inactive) | > 100 µM (inactive) |
| O=C(Nc1ccccc1C(=O)O)C(=Cc1ccccc1O)NC(=O)c1ccccc1 | > 100 µM (inactive) | > 100 µM (inactive) | > 100 µM (inactive) | > 100 µM (inactive) | > 100 µM (inactive) | > 100 µM (inactive) | > 100 µM (inactive) | > 100 µM (inactive) | > 100 µM (inactive) | 61.2 µM (inactive) |  | > 100 µM (inactive) | > 100 µM (inactive) | > 100 µM (inactive) | > 100 µM (inactive) | > 100 µM (inactive) | > 100 µM (inactive) | > 100 µM (inactive) | > 100 µM (inactive) |
